In patent US20240294484A1, “HERBICIDAL ARYLDIHYDROFURANE CARBOXYLATES” (BASF SE, priority 2021, published 2024):

Columns and labels:
AMARE [1] = assay: greenhouse post-emergence herbicidal test; type: in vivo, Amaranthus retroflexus; conditions: post-emergence method, application rate 1,000 kg/ha; scale from 0 to 100
Text: (§1) The culture containers used were plastic flowerpots containing loamy sand with approximately 3.0% of humus as the substrate. The seeds of the test plants were sown separately for each species.
(§2) For the pre-emergence treatment, the active ingredients, which had been suspended or emulsified in water, were applied directly after sowing by means of finely distributing nozzles. The containers were irrigated gently to promote germination and growth and subsequently covered with transparent plastic hoods until the test plants had rooted. This cover caused uniform germination of the test plants, unless this had been impaired by the active ingredients. For the post-emergence treatment, the test plants were first grown to a height of 3 to 15 cm, depending on the plant habit, and only then treated with the active ingredients which had been suspended or emulsified in water. For this purpose, the test plants were either sown directly and grown in the same containers, or they were first grown separately as seedlings and transplanted into the test containers a few days prior to treatment.
(§3) Depending on the species, the test plants were kept at 10-25° C. or 20-35° C., respectively. The test period extended over 2 to 4 weeks. During this time, the test plants were tended, and their response to the individual treatments was evaluated.
(§4) Evaluation was carried out using a scale from 0 to 100. […]

AMARE [2] = assay: greenhouse pre-emergence herbicidal test; type: in vivo, Amaranthus retroflexus; conditions: pre-emergence method, application rate 1,000 kg/ha; scale from 0 to 100
Text: as §1, §2, §3, §4

ECHCG = assay: greenhouse pre-emergence herbicidal test; type: in vivo, Echinocloa crus-galli; conditions: pre-emergence method, application rate 1,000 kg/ha; scale from 0 to 100
Text: as §1, §2, §3, §4

AVEFA = assay: greenhouse post-emergence herbicidal test; type: in vivo, Avena fatua; conditions: post-emergence method, application rate 1,000 kg/ha; scale from 0 to 100
Text: as §1, §2, §3, §4

APESV = assay: greenhouse pre-emergence herbicidal test; type: in vivo, Apera spica-venti; conditions: pre-emergence method, application rate 1,000 kg/ha; scale from 0 to 100
Text: as §1, §2, §3, §4

CCOC(=O)C1CC(c2cc(F)cc(F)c2)=CO1 (stereo not drawn) [compound 11, ethyl 4-(3,5-difluorophenyl)-2,3-dihydrofuran-2-carboxylate]
herbicidal activity against AMARE (AMARE [1]): very good herbicidal activity (a very good herbicidal activity is given at values of 90 to 100)

ethyl 4-(3,5-difluorophenyl)-2-methyl-3H-furan-2-carboxylic acid [compound 12]
herbicidal activity against AMARE (AMARE [2]): good herbicidal activity (A good herbicidal activity is given at values of 65 to 90) | herbicidal activity against ECHCG (ECHCG): good herbicidal activity (A good herbicidal activity is given at values of 65 to 90)

O=C(O)C1(C(F)(F)F)CC(c2cc(F)cc(F)c2)=CO1 (stereo not drawn) [compound 17, 4-(3,5-difluorophenyl)-2-(trifluoromethyl)-3H-furan-2-carboxylic acid]
herbicidal activity against AVEFA (AVEFA): very good herbicidal activity (a very good herbicidal activity is given at values of 90 to 100)

ethyl 4-(3,5-dichlorophenyl)-2-methyl-3H-furan-2-carboxylic acid [compound 14]
herbicidal activity against APESV (APESV): very good herbicidal activity (a very good herbicidal activity is given at values of 90 to 100) | herbicidal activity against ECHCG (ECHCG): very good herbicidal activity (a very good herbicidal activity is given at values of 90 to 100)
